Reference: PubChem BioAssay AID248 (DTP/NCI, 2004)
Values joined by “and” are separate entries in the source; they are usually repeats but may differ in a detail not shown here. Equal entries are not always repeated. Inconclusive results and toxic doses are left out.

Tested on: L1210 leukemia ip in BDF1 mice, survival T/C
Assay: NCI In Vivo Anticancer Drug Screen. Data for tumor model L1210 Leukemia (intraperitoneal) in B6D2F1 (BDF1) mice
Conditions: endpoint: mean survival time, higher = longer survival
Summary of the method: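 Read-out is survival time, reported as the treated-group measurement over the vehicle-control measurement.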

[1] = dose: 50.0 mg/kg/injection, schedule: Q01DX001 (ip), vehicle: saline
[2] = dose: 100.0 mg/kg/injection, schedule: Q01DX001 (ip), vehicle: saline
[3] = dose: 200.0 mg/kg/injection, schedule: Q01DX001 (ip), vehicle: saline
[4] = dose: 400.0 mg/kg/injection, schedule: Q01DX001 (ip), vehicle: saline
[5] = dose: 100.0 mg/kg/injection, schedule: Q04DX002 (ip), vehicle: Klucel (hydroxypropylcellulose) (HPC)
[6] = dose: 200.0 mg/kg/injection, schedule: Q04DX002 (ip), vehicle: Klucel (hydroxypropylcellulose) (HPC)
[7] = dose: 400.0 mg/kg/injection, schedule: Q04DX002 (ip), vehicle: Klucel (hydroxypropylcellulose) (HPC)
[8] = dose: 50.0 mg/kg/injection, schedule: Q01DX009 (ip), vehicle: saline with Tween-80
[9] = dose: 100.0 mg/kg/injection, schedule: Q04DX003 (ip), vehicle: saline with Tween-80
[10] = dose: 100.0 mg/kg/injection, schedule: Q04DX003 (ip), vehicle: Klucel (hydroxypropylcellulose) (HPC)

COc1ccc(Cl)cc1CCCO
T/C [1]: 100 % of control | T/C [2]: 100 % of control | T/C [3]: 92 % of control | T/C [4]: 119 % of control

CCCCNC(C)(C)C(SSSC(c1ccc(Cl)cc1)C(C)(C)NCCCC)c1ccc(Cl)cc1 (stereo not drawn)
T/C (dose: 12.0 mg/kg/injection, schedule: Q01DX009 (ip), vehicle: Klucel (hydroxypropylcellulose) (HPC)): 104 % of control | T/C (dose: 25.0 mg/kg/injection, schedule: Q01DX009 (ip), vehicle: Klucel (hydroxypropylcellulose) (HPC)): 100 % of control | T/C (dose: 50.0 mg/kg/injection, schedule: Q01DX009 (ip), vehicle: Klucel (hydroxypropylcellulose) (HPC)): 100 % of control

CCOC(=O)n1cnc2nc(N)nc(Cl)c21
T/C [1]: 103 % of control | T/C [2]: 105 % of control | T/C [3]: 100 % of control | T/C [4]: 122 % of control

O=C(NNc1ccccc1)C(O)C(O)C(O)C(O)C(O)CO (stereo not drawn)
T/C [5]: 98 % of control | T/C [6]: 95 % of control | T/C [7]: 91 % of control

COP1(=O)OCC(C)O1 (stereo not drawn)
T/C [2]: 113 % of control | T/C [3]: 102 % of control | T/C [4]: 94 % of control

O=C(c1ccc([N+](=O)[O-])cc1)c1ccc([N+](=O)[O-])cc1
T/C (dose: 100.0 mg/kg/injection, schedule: Q04DX002 (ip), vehicle: saline with Tween-80): 90 % of control | T/C (dose: 200.0 mg/kg/injection, schedule: Q04DX002 (ip), vehicle: saline with Tween-80): 90 % of control | T/C (dose: 400.0 mg/kg/injection, schedule: Q04DX002 (ip), vehicle: saline with Tween-80): 101 % of control

CC(C)(C)NC(=O)NCc1cccnc1
T/C (dose: 100.0 mg/kg/injection, schedule: Q01DX009 (ip), vehicle: saline sonified): 97 % of control | T/C (dose: 100.0 mg/kg/injection, schedule: Q04DX003 (ip), vehicle: saline sonified): 100 % of control | T/C (dose: 200.0 mg/kg/injection, schedule: Q01DX009 (ip), vehicle: saline sonified): 100 % of control | T/C (dose: 200.0 mg/kg/injection, schedule: Q04DX003 (ip), vehicle: saline sonified): 87 % of control | T/C (dose: 400.0 mg/kg/injection, schedule: Q01DX009 (ip), vehicle: saline sonified): 105 % of control | T/C (dose: 400.0 mg/kg/injection, schedule: Q04DX003 (ip), vehicle: saline sonified): 94 % of control

S=C(N/N=C/c1ccccn1)N/N=C/c1ccccn1
T/C (dose: 20.0 mg/kg/injection, schedule: Q01DX009 (ip), vehicle: saline with Tween-80): 105 % of control | T/C (dose: 33.0 mg/kg/injection, schedule: Q01DX009 (ip), vehicle: saline with Tween-80): 100 % of control | T/C [8]: 152 % of control | T/C [9]: 103 % of control

CS(=O)(=O)OCCN(CCOS(C)(=O)=O)c1ccc(C=Nc2cccc(Br)c2)cc1
T/C (dose: 2.5 mg/kg/injection, schedule: Q04DX003 (ip), vehicle: Klucel (hydroxypropylcellulose) (HPC)): 103 % of control | T/C (dose: 5.0 mg/kg/injection, schedule: Q04DX003 (ip), vehicle: Klucel (hydroxypropylcellulose) (HPC)): 109 % of control | T/C (dose: 10.0 mg/kg/injection, schedule: Q04DX003 (ip), vehicle: Klucel (hydroxypropylcellulose) (HPC)): 117 % of control | T/C [10]: 92 % of control

COc1ccc(C(=O)/C=C/c2ccccc2)c(O)c1
T/C [1]: 98 % of control | T/C [2]: 102 % of control | T/C [3]: 102 % of control | T/C [4]: 98 % of control

Cc1cccc(NC(=O)Nc2ccccc2)c1C
T/C (dose: 100.0 mg/kg/injection, schedule: Q01DX009 (ip), vehicle: Klucel (hydroxypropylcellulose) (HPC)): 104 % of control | T/C [10]: 101 % of control | T/C (dose: 200.0 mg/kg/injection, schedule: Q01DX009 (ip), vehicle: Klucel (hydroxypropylcellulose) (HPC)): 96 % of control | T/C (dose: 200.0 mg/kg/injection, schedule: Q04DX003 (ip), vehicle: Klucel (hydroxypropylcellulose) (HPC)): 95 % of control | T/C (dose: 400.0 mg/kg/injection, schedule: Q01DX009 (ip), vehicle: Klucel (hydroxypropylcellulose) (HPC)): 104 % of control | T/C (dose: 400.0 mg/kg/injection, schedule: Q04DX003 (ip), vehicle: Klucel (hydroxypropylcellulose) (HPC)): 98 % of control

CC/C=C/N1CCCCC1
T/C (dose: 25.0 mg/kg/injection, schedule: Q01DX009 (ip), vehicle: saline with Tween-80): 97 % of control | T/C [8]: 94 % of control | T/C (dose: 100.0 mg/kg/injection, schedule: Q01DX009 (ip), vehicle: saline with Tween-80): 113 % of control and 91 % of control

Cc1ccc(S(=O)(=O)NC(=O)NCCCOC(C)C)cc1
T/C [9]: 98 % of control | T/C (dose: 200.0 mg/kg/injection, schedule: Q04DX003 (ip), vehicle: saline with Tween-80): 94 % of control | T/C (dose: 400.0 mg/kg/injection, schedule: Q04DX003 (ip), vehicle: saline with Tween-80): 96 % of control

CC(=O)Nc1ccc(F)c(Cl)c1F
T/C [5]: 121 % of control | T/C [6]: 105 % of control | T/C [7]: 102 % of control
